PMC11649115, “In vitro safety evaluation of dopamine D3R antagonist, R-VK4-116, as a potential medication for the treatment of opioid use disorder” (PLOS ONE, 2024)
Values joined by “and” are separate entries in the source; they are usually repeats but may differ in a detail not shown here. Equal values may be shown once. Read-outs that look alike come from different tables or passages of the source.

What was measured:
dog plasma proteins = experiment: Plasma protein binding, Sephadex G-25 gel filtration; assay type: in vitro ADME
Procedure: (§1) The gel filtration used solid-phase extraction columns containing hydrated gel filtration beads (Sephadex G-25). […] In this method, the amount of analyte accompanying the proteins (i.e., protein-bound R-VK4-116) before and after filtration was assayed for analyte concentration by LC-MS/MS.

[1] = as above; assay type: in vitro ADME; settings: plasma; for fraction unbound at 2 h, 0.5 μM: nominal 0.5 μM; for fraction unbound at 2 h, 1 μM: nominal 1 μM
Procedure: as §1

rat plasma proteins = experiment: as above; assay type: in vitro ADME
Procedure: as §1

MATE1 = molecular target: T1, MATE1 (Homo sapiens, UniProt Q96FL8); experiment: Transporter mediated assay (substrate/inhibitor), MDCK-II cells; assay type: in vitro ADME
T1 construct: expressed in transfected cells; host or cells: MDCK-II cells
T1 sequence (Q96FL8 1-570): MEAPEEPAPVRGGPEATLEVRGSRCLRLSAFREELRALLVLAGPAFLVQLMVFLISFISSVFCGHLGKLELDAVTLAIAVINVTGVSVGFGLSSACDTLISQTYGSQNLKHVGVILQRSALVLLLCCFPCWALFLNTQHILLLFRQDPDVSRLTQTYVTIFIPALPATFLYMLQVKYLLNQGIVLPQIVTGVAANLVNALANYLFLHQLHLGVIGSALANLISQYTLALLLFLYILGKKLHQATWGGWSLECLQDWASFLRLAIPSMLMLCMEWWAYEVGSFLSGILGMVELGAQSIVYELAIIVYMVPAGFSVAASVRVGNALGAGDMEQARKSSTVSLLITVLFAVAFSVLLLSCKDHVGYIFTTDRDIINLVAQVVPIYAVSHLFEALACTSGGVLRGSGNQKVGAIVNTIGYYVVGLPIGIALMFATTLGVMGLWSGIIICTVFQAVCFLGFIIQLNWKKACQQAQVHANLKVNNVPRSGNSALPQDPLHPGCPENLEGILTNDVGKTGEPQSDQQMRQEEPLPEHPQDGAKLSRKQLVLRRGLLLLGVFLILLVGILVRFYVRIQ
Procedure: The MDCK-II cells were treated to express the transporter of interest. The transport of each probe substrate was determined by radiometric detection (Fig 1 in S1 File). […] For the uptake assay, the net transporter-mediated uptake-rate (V) of the substrate by each SLC transporter was calculated as follows: Transporter–mediatedupdaterate(pmol/min/cm^2)=(Cellularaccumulationincellsexpressingthetransporter)−(Meancellularaccumulationincontrolcells)/Surfacearea×incubationtime
Fold of activity and percent inhibition were determined as follows: Foldofactivity=(Meanuptakerate)transporterexpressingcells/(Meanuptakerate)controlcells Percentinhibition=100−100×(Transport‐mediatedupdaterate)withinhibitor/(Transport‐mediatedupdaterate)vehiclecontrol

[2] = Metabolic stability in liver microsomes; settings: dog, pH 7.4
dog hepatocytes = experiment: Metabolic stability in hepatocyte; settings: dog hepatocytes
Procedure: (§2) CYP3A4 substrate Midazolam (10 μM) was prepared and incubated in the same manner. […] In addition, in vitro half-life (t1/2, min) and intrinsic clearance (CLint, μl/min/10^6 cells) were calculated [10, 11].

[3] = Metabolic stability in hepatocyte; settings: Beagle, dog, hepatocytes in suspension
Procedure: as §2

hGABAA∞1β2γ2 = molecular target: T2, hGABAA∞1β2γ2 (Homo sapiens, UniProt P14867+P18507+P47870); experiment: IonFlux HT electrophysiological assay; assay type: cell-based; settings: 10 μM
T2 construct: Eurofins Cerep (France) and Eurofins Discovery (St. Charles, MO)
Procedure: Electrophysiological assays were also conducted to profile R-VK4-116 for activities on ion channel targets. The QPatch HT (patch clamp) measured the agonist or antagonist activity of R-VK4-116 on ion channels. For these assays, the voltage was used as the ligand to activate the channel and induce a measurable current. The IonFlux HT measured the agonist, antagonist, or PAM activity of R-VK4-116 on ligand-gated ion channels. For these assays, GABA or Acetylcholine (ACh) was used as the ligand to activate the channel and induce measurable current. The six ion channels tested at 10 μM of R-VK4-116 in replicate were hNav1.5 Peak, hERG, hKCNQ1/minK, hCav1.2, hGABAA∞1/β2g2 and hnAChR∞4/β2.

CYP2B6 = experiment: CYP induction, in situ catalytic activity, human hepatocytes
Text: Rifampicin as a positive control and solvent (0.1% DMSO) vehicle control were also included. The acceptance criteria for CYP induction was ≥ 2-fold induction for significant CYP activity, while the acceptance criteria for CYP mRNA was ≥ 4-fold for significant CYP induction.

[4] = dog, read-out: % Bound, Mean ± SD (converted)
[5] = rat, read-out: % Bound (converted)
[6] = rat, read-out: % Bound, Mean ± SD (converted)
[7] = heat-inactivated liver microsomes

T2 sequence (P14867 28-456): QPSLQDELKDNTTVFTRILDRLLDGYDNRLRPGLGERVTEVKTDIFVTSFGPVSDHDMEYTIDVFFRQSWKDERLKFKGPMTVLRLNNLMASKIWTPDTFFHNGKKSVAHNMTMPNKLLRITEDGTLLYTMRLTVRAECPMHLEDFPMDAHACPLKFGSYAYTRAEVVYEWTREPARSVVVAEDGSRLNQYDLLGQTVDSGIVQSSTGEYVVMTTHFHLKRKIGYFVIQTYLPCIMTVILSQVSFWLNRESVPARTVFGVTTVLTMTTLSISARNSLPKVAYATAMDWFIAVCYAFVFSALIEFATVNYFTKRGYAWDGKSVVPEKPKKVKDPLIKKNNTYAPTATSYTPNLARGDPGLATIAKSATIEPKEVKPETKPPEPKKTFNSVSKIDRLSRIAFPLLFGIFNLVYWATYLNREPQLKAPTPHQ
T2 sequence (P47870 25-512 limits assumed): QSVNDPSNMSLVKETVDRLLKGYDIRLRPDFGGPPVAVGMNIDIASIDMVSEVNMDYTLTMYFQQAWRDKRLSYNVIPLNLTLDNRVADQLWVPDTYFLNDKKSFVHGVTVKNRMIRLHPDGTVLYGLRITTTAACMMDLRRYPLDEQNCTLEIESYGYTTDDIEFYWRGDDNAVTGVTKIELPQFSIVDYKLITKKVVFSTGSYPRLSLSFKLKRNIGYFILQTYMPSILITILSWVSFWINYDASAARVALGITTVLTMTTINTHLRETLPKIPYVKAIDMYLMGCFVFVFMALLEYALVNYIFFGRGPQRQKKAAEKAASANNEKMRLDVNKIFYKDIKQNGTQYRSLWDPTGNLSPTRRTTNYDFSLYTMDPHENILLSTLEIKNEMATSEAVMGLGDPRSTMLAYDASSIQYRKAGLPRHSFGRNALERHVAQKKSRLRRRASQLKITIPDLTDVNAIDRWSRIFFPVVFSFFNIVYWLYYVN
T2 sequence (P18507 40-475): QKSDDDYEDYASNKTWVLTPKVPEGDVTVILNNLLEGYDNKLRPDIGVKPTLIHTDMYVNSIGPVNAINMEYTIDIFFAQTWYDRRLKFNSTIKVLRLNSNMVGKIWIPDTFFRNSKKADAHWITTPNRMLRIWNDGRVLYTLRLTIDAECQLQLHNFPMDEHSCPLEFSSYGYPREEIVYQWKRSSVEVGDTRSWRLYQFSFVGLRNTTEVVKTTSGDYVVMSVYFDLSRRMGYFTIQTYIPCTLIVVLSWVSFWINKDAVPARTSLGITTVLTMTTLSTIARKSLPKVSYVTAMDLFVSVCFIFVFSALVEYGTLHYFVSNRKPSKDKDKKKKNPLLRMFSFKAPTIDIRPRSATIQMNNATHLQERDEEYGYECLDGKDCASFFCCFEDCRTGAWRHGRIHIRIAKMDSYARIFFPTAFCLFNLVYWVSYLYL

SMILES: CCc1cc(Cl)c(OC)c(N2CCN(CC(O)CCNC(=O)c3cc4ccccc4[nH]3)CC2)c1 (stereo not shown) [R-VK4-116, N-(4-(4-(3-chloro-5-ethyl-2-methoxyphenyl)piperazin-1-yl)-3-hydroxybutyl)-1H-indole-2-carboxamide]
- % Bound (dog plasma proteins; nominal 0.5 μM): 92.1% and 80.8% and 77.9%
- Ratio [R-VK4-116] Before Filtration / Eluate (dog plasma proteins; nominal 0.5 μM): 1.25 and 1.24
- Ratio [R-VK4-116] Before Filtration / Eluate, Mean ± SD (dog plasma proteins; nominal 0.5 μM): 1.25 ± 0.01
- [R-VK4-116] Before Filtration (dog plasma proteins; nominal 0.5 μM): 0.618 µM and 0.616 µM and 0.609 µM
- [R-VK4-116] In Sephadex G-25 Eluate (dog plasma proteins; nominal 0.5 μM): 0.495 µM and 0.493 µM and 0.491 µM
- % Bound (dog plasma proteins; nominal 1 μM): 73.3% and 92.5% and 82.4%
- Ratio [R-VK4-116] Before Filtration / Eluate (dog plasma proteins; nominal 1 μM): 1.68 and 1.51 and 1.77
- Ratio [R-VK4-116] Before Filtration / Eluate, Mean ± SD (dog plasma proteins; nominal 1 μM): 1.65 ± 0.13
- [R-VK4-116] Before Filtration (dog plasma proteins; nominal 1 μM): 1.05 µM and 1.07 µM
- [R-VK4-116] In Sephadex G-25 Eluate (dog plasma proteins; nominal 1 μM): 0.626 µM and 0.707 µM and 0.604 µM
- fraction unbound at 2 h, 0.5 μM [1, 4]: 0.164
- fraction unbound at 2 h, 1 μM [1, 4]: 0.173
- fraction unbound at 2 h, 0.5 μM [1, 5]: 0.164
- fraction unbound at 2 h, 0.5 μM [1, 6]: 0.168
- fraction unbound at 2 h, 1 μM [1, 5]: 0.086
- fraction unbound at 2 h, 1 μM [1, 6]: 0.072
- % Bound (rat plasma proteins; nominal 0.5 μM): 79.3% and 86.7%
- Ratio [R-VK4-116] Before Filtration / Eluate (rat plasma proteins; nominal 0.5 μM): 1.18 and 1.20
- Ratio [R-VK4-116] Before Filtration / Eluate, Mean ± SD (rat plasma proteins; nominal 0.5 μM): 1.19 ± 0.01
- [R-VK4-116] Before Filtration (rat plasma proteins; nominal 0.5 μM): 0.631 µM and 0.630 µM
- [R-VK4-116] In Sephadex G-25 Eluate (rat plasma proteins; nominal 0.5 μM): 0.533 µM and 0.535 µM and 0.525 µM
- % Bound (rat plasma proteins; nominal 1 μM): 93.9% and 93.2%
- Ratio [R-VK4-116] Before Filtration / Eluate (rat plasma proteins; nominal 1 μM): 1.63 and 1.60 and 1.58
- Ratio [R-VK4-116] Before Filtration / Eluate, Mean ± SD (rat plasma proteins; nominal 1 μM): 1.60 ± 0.02
- [R-VK4-116] Before Filtration (rat plasma proteins; nominal 1 μM): 1.03 µM and 1.01 µM and 1.02 µM
- [R-VK4-116] In Sephadex G-25 Eluate (rat plasma proteins; nominal 1 μM): 0.632 µM and 0.647 µM
- fold difference in mean uptake rate (substrate test) (MATE1; MATE1, 1 μM, transporter cells vs control cells): < 2 fold
- inhibition at 10 µM (MATE1; human, polarized monolayer of MDCK-II cells expressing MATE1, MATE1, 0.1% BSA, 10 μM): 19.4 ± 7.57%
- remaining at 0 h, 1 μM [2, 7]: 100%
- remaining at 0 h, 10 μM [2, 7]: 100%
- remaining at 2 h, 1 μM [2, 7]: 90.7%
- remaining at 2 h, 10 μM [2, 7]: 90.6%
- remaining at 0 h, 1 μM ([2]; liver microsomes): 100%
- remaining at 0 h, 10 μM ([2]; liver microsomes): 100%
- remaining at 0.5 h, 1 μM ([2]; liver microsomes): 44.6%
- remaining at 0.5 h, 10 μM ([2]; liver microsomes): 74.3%
- remaining at 1 h, 1 μM ([2]; liver microsomes): 22.5%
- remaining at 1 h, 10 μM ([2]; liver microsomes): 64.5%
- remaining at 1.5 h, 1 μM ([2]; liver microsomes): 22.3%
- remaining at 1.5 h, 10 μM ([2]; liver microsomes): 55.6%
- remaining at 2 h, 1 μM ([2]; liver microsomes): 19.7%
- remaining at 2 h, 10 μM ([2]; liver microsomes): 49.9%
- % remaining Vs T = 0 min (dog hepatocytes; 0.5 μM, 0 min): 100.0%
- % remaining Vs T = 0 min (dog hepatocytes; 0.5 μM, 30 min): 71.2%
- % remaining Vs T = 0 min (dog hepatocytes; 0.5 μM, 60 min): 61.2%
- % remaining Vs T = 0 min (dog hepatocytes; 0.5 μM, 90 min): 45.4%
- % remaining Vs T = 0 min (dog hepatocytes; 0.5 μM, 120 min): 40.1%
- % remaining Vs T = 0 min (dog hepatocytes; 10 μM, 0 min): 100.0%
- % remaining Vs T = 0 min (dog hepatocytes; 10 μM, 30 min): 85.3%
- % remaining Vs T = 0 min (dog hepatocytes; 10 μM, 60 min): 85.5%
- % remaining Vs T = 0 min (dog hepatocytes; 10 μM, 90 min): 80.3%
- % remaining Vs T = 0 min (dog hepatocytes; 10 μM, 120 min): 76.4%
- half-life at 0.5 μM [3]: 1.52 h
- half-life at 10 μM [3]: 5.78 h
- hepatocyte CLint at 0.5 μM [3]: 15.2 µL/min/1e6 cells
- hepatocyte CLint at 10 μM [3]: 4 µL/min/1e6 cells
- agonist effect (hGABAA∞1β2γ2): 97.71%
- Fold of Vehicle Control (CYP2B6 activity, bupropion hydroxylation) (CYP2B6; hepatocyte Lot 336, 0.01 µM): 1.2 fold
- Fold of Vehicle Control (CYP2B6 activity, bupropion hydroxylation) (CYP2B6; hepatocyte Lot 336, 0.1 µM): 1.1 fold
- Fold of Vehicle Control (CYP2B6 activity, bupropion hydroxylation) (CYP2B6; hepatocyte Lot 336, 1 µM): 1.1 fold
- Fold of Vehicle Control (CYP2B6 activity, bupropion hydroxylation) (CYP2B6; hepatocyte Lot 336, 3 µM): 1.1 fold
- Fold of Vehicle Control (CYP2B6 activity, bupropion hydroxylation) (CYP2B6; hepatocyte Lot 336, 5 µM): 1.1 fold
- Bupropion Hydroxylation (CYP2B6; hepatocyte Lot 336, 10 µM): 0.97 pmol/min/106 cells
- Fold of Vehicle Control (CYP2B6 activity, bupropion hydroxylation) (CYP2B6; hepatocyte Lot 336, 10 µM): 1.1 fold
- Bupropion Hydroxylation (CYP2B6; hepatocyte Lot 348B, 0.01 µM): 5.0 pmol/min/106 cells
- Fold of Vehicle Control (CYP2B6 activity, bupropion hydroxylation) (CYP2B6; hepatocyte Lot 348B, 0.01 µM): 1.1 fold
- Bupropion Hydroxylation (CYP2B6; hepatocyte Lot 348B, 0.1 µM): 4.5 pmol/min/106 cells
- Fold of Vehicle Control (CYP2B6 activity, bupropion hydroxylation) (CYP2B6; hepatocyte Lot 348B, 0.1 µM): 1.0 fold
- Bupropion Hydroxylation (CYP2B6; hepatocyte Lot 348B, 1 µM): 4.5 pmol/min/106 cells
- Fold of Vehicle Control (CYP2B6 activity, bupropion hydroxylation) (CYP2B6; hepatocyte Lot 348B, 1 µM): 1.0 fold
- Bupropion Hydroxylation (CYP2B6; hepatocyte Lot 348B, 3 µM): 4.1 pmol/min/106 cells
- Fold of Vehicle Control (CYP2B6 activity, bupropion hydroxylation) (CYP2B6; hepatocyte Lot 348B, 3 µM): 0.94 fold
- Bupropion Hydroxylation (CYP2B6; hepatocyte Lot 348B, 5 µM): 3.8 pmol/min/106 cells
- Fold of Vehicle Control (CYP2B6 activity, bupropion hydroxylation) (CYP2B6; hepatocyte Lot 348B, 5 µM): 0.85 fold
- Bupropion Hydroxylation (CYP2B6; hepatocyte Lot 348B, 10 µM): 3.9 pmol/min/106 cells
- Fold of Vehicle Control (CYP2B6 activity, bupropion hydroxylation) (CYP2B6; hepatocyte Lot 348B, 10 µM): 0.89 fold
- Fold of Vehicle Control (CYP2B6 activity, bupropion hydroxylation) (CYP2B6; hepatocyte Lot 399, 0.01 µM): 1.0 fold
- Fold of Vehicle Control (CYP2B6 activity, bupropion hydroxylation) (CYP2B6; hepatocyte Lot 399, 0.1 µM): 1.0 fold
- Fold of Vehicle Control (CYP2B6 activity, bupropion hydroxylation) (CYP2B6; hepatocyte Lot 399, 1 µM): 1.1 fold
- Fold of Vehicle Control (CYP2B6 activity, bupropion hydroxylation) (CYP2B6; hepatocyte Lot 399, 3 µM): 1.2 fold
- Fold of Vehicle Control (CYP2B6 activity, bupropion hydroxylation) (CYP2B6; hepatocyte Lot 399, 5 µM): 1.1 fold
- Fold of Vehicle Control (CYP2B6 activity, bupropion hydroxylation) (CYP2B6; hepatocyte Lot 399, 10 µM): 1.1 fold
